{"source": "patent US20250368628A1", "about": "“METHODS AND COMPOUNDS FOR MODULATING INHERITED GENETIC DISEASES” (Design Therapeutics, Inc., priority 2022, published 2025)", "data": [{"test_system": "Myotonic Dystrophy 1 affected patient fibroblasts (Coriel GM04602; 1600 CTG repeats)", "assay": "DM1 foci reduction assay (EC50 assay; CAG10-Cy3 FISH, foci per nucleus)", "format": "cell-based", "settings": "Homo sapiens, Fibroblast; DM1 patient fibroblasts, 48 h treatment, foci per nucleus; read-out: DM1 EC50, 48 h", "description": "DM1 Foci Reduction Assay Methods\nMyotonic Dystrophy 1 affected patient fibroblasts (Coriel GM04602; 1600 CTG repeats) and wild type fibroblasts (Coriell GM07492; control line) were cultured separately in Gibco DMEM (1×)+4.5 g/L D-Glucose+L-Glutamine+[…] Sodium Pyruvate, supplemented with 10% FBS and 1× Pen/Strep. Cells were maintained in an incubator at 37° C. and 5% CO2 with media refreshed every 48-72 hours.\nAt 90-95% confluency, both cell lines were harvested using Trypl-E then pelleted at 500×g for 5 minutes and were resuspended in fresh media. DM1 fibroblasts were seeded in Agilent 96 well black plates at a density of 5,000 cells/well in 200 μL media; and 8 wells were reserved for control fibroblasts. Plates were returned to incubator for 24 hours at 37° C. and 5% CO2.\nCompounds were diluted from 10 mM stock to 1 mM in DMSO and then diluted once more to 6 μM (2× concentration) in media. Media was removed from all plates and cells were replenished with 100 μL media. Cells were treated in 8-point dose response, 1:3 fold dilution, 3 μM top dose via addition of 100 μL of 6 μM (2× concentration) compound to the 100 μL media with cells. Plates were returned to incubator for 48 hours at 37° C. and 5% CO2.\nFollowing treatment, compounds were removed, and plates were washed with PBS, then cells were fixed in 75 μL 4% PFA solution for 20 minutes at room temperature. Plates were washed twice with PBS and twice with cold 70% ethanol before permeabilization with 250 μL cold 70% ethanol for 24-72 hours at −20° C.\nAfter permeabilization, plates were washed once with a 30% formamide and 2×SSC buffer and rehydrated in that buffer for 15 minutes at room temperature. Cells were incubated overnight at 37° C. in 75 μL of a hybridization solution containing 30% formamide, 2×SSC, 25 mg/mL dextran sulfate, 2.5 mg/mL BSA, 0.2 μg/mL Herring sperm DNA, 2 mM vanadyl-ribonucleoside complex, and 5 nM CAG10-Cy3 probe.\nPlates were washed once with 30% formamide in 2×SSC buffer, then twice with the buffer for 30 minutes at 37° C., 300 RPM in an incubating plate shaker. Cells were stained with 75 μL of 2.5 μg/mL DAPI in PBS for 5 minutes at room temperature. Plates were then washed twice with PBS and stored in 250 μL PBS. Plates were sealed with adhesive foil and wiped down with 70% ethanol.\nCells were imaged on a Cytation5 with a 20× objective sampling from 4 areas of each well. Nuclei were captured under DAPI channel and foci under RFP channel. Plates were analyzed on an average foci per nucleus per well basis.", "units": {"EC50": "nM"}, "values": [{"compound": "CCCNC(=O)c1cc(NC(=O)c2nc(NC(=O)CCNC(=O)c3cc(NC(=O)c4nc(NC(=O)[C@H](N)CCNC(=O)c5cc(NC(=O)c6nc(NC(=O)CCNC(=O)c7cc(NC(=O)c8nccn8C)cn7C)cn6C)cn5C)cn4C)cn3C)cn2C)cn1C", "note": "[Compound B-6]", "EC50": "500 to 1000"}, {"compound": "CCCNC(=O)c1cc(NC(=O)c2nc(NC(=O)CCNC(=O)c3cc(NC(=O)c4nc(NC(=O)[C@@H](CCNC(=O)c5cc(NC(=O)c6nc(NC(=O)CCNC(=O)c7cc(NC(=O)c8nccn8C)cn7C)cn6C)cn5C)NC(C)=O)cn4C)cn3C)cn2C)cn1C", "note": "[Compound B-7]", "EC50": "500 to 1000"}, {"compound": "Cn1cc(NC(=O)c2nc(NC(=O)CCNC(=O)c3cc(NC(=O)c4nccn4C)cn3C)cn2C)cc1C(=O)NCCCC(=O)Nc1cn(C)c(C(=O)NCCC(=O)Nc2cc(C(=O)Nc3cn(C)c(C(=O)NCCC(=O)NCCOCCOCCOCCOCCOc4ccc(NC(=O)OCc5ccccc5)cc4)n3)n(C)c2)n1", "note": "[Compound B-11]", "EC50": "> 1000"}, {"compound": "Cn1cc(NC(=O)c2nc(NC(=O)CCNC(=O)c3cc(NC(=O)c4nccn4C)cn3C)cn2C)cc1C(=O)NCCCC(=O)Nc1cn(C)c(C(=O)NCCC(=O)Nc2cc(C(=O)Nc3cn(C)c(C(=O)NCCC(=O)NCCOCCOCCOc4ccc(NC(=O)OCc5ccccc5)cc4)n3)n(C)c2)n1", "note": "[Compound B-13]", "EC50": "> 1000"}, {"compound": "Cn1cc(NC(=O)c2nc(NC(=O)CCNC(=O)c3cc(NC(=O)c4nccn4C)cn3C)cn2C)cc1C(=O)NCCCC(=O)Nc1cn(C)c(C(=O)NCCC(=O)Nc2cc(C(=O)Nc3cn(C)c(C(=O)NCCC(=O)N4CCC(N5CCN(CCOCCOCCOCCOCCN)CC5)CC4)n3)n(C)c2)n1", "note": "[Compound B-24]", "EC50": "> 1000"}, {"compound": "Cn1cc(NC(=O)c2nc(NC(=O)CCNC(=O)c3cc(NC(=O)c4nccn4C)cn3C)cn2C)cc1C(=O)NCCCC(=O)Nc1cn(C)c(C(=O)NCCC(=O)Nc2cc(C(=O)Nc3cn(C)c(C(=O)NCCC(=O)NCCOCCN4CCN(C5CCN(c6ccc([N+](=O)[O-])cc6)CC5)CC4)n3)n(C)c2)n1", "note": "[Compound B-26]", "EC50": "> 1000"}, {"compound": "Cn1cc(NC(=O)c2nc(NC(=O)CCNC(=O)c3cc(NC(=O)c4nccn4C)cn3C)cn2C)cc1C(=O)NCCCC(=O)Nc1cn(C)c(C(=O)NCCC(=O)Nc2cc(C(=O)Nc3cn(C)c(C(=O)NCCC(=O)N4CCN(C5CCN(c6ccc([N+](=O)[O-])cc6)CC5)CC4)n3)n(C)c2)n1", "note": "[Compound B-29, 1-Methyl-4-{1-methyl-4-[3-({1-methyl-4-[4-({1-methyl-4-[1-methyl-4-(3-{[1-methyl-4-(1-methylimidazole-2-amido)pyrrol-2-yl]formamido}propanamido)imidazole-2-amido]pyrrol-2-yl}formamido)butanamido]imidazol-2-yl}formamido)propanamido]pyrrole-2-amido}-N-(3-{4-[1-(4-nitrophenyl)piperidin-4-yl]piperazin-1-yl}-3-oxopropyl)imidazole-2-carboxamide]", "EC50": "> 1000"}, {"compound": "Cn1cc(NC(=O)c2nc(NC(=O)CCNC(=O)c3cc(NC(=O)c4nccn4C)cn3C)cn2C)cc1C(=O)NCCCC(=O)Nc1cn(C)c(C(=O)NCCC(=O)Nc2cc(C(=O)Nc3cn(C)c(C(=O)NCCC(=O)NCCCN=C(N)N)n3)n(C)c2)n1", "note": "[Compound B-34]", "EC50": "500 to 1000"}, {"compound": "CCCCCCCCCCNC(=O)CCNC(=O)c1nc(NC(=O)c2cc(NC(=O)CCNC(=O)c3nc(NC(=O)CCCNC(=O)c4cc(NC(=O)c5nc(NC(=O)CCNC(=O)c6cc(NC(=O)c7nccn7C)cn6C)cn5C)cn4C)cn3C)cn2C)cn1C", "note": "[Compound B-40]", "EC50": "< 100"}, {"compound": "CN(C)CCCCCNC(=O)CCNC(=O)c1nc(NC(=O)c2cc(NC(=O)CCNC(=O)c3nc(NC(=O)CCCNC(=O)c4cc(NC(=O)c5nc(NC(=O)CCNC(=O)c6cc(NC(=O)c7nccn7C)cn6C)cn5C)cn4C)cn3C)cn2C)cn1C", "note": "[Compound B-41]", "EC50": "100 to 500"}, {"compound": "Cn1cc(NC(=O)c2nc(NC(=O)CCNC(=O)c3cc(NC(=O)c4nccn4C)cn3C)cn2C)cc1C(=O)NCCCC(=O)Nc1cn(C)c(C(=O)NCCC(=O)Nc2cc(C(=O)Nc3cn(C)c(C(=O)NCCC(=O)NCCO)n3)n(C)c2)n1", "note": "[Compound B-51]", "EC50": "100 to 500"}, {"compound": "Cn1cc(NC(=O)c2nc(NC(=O)CCNC(=O)c3cc(NC(=O)c4nccn4C)cn3C)cn2C)cc1C(=O)NCCCC(=O)Nc1cn(C)c(C(=O)NCCC(=O)Nc2cc(C(=O)Nc3cn(C)c(C(=O)NCCC(=O)NC4CCCCC4)n3)n(C)c2)n1", "note": "[Compound B-53]", "EC50": "100 to 500"}, {"compound": "Cn1cc(NC(=O)c2nc(NC(=O)CCNC(=O)c3cc(NC(=O)c4nccn4C)cn3C)cn2C)cc1C(=O)NCCCC(=O)Nc1cn(C)c(C(=O)NCCC(=O)Nc2cc(C(=O)Nc3cn(C)c(C(=O)NCCC(=O)N[C@H]4CC[C@H](O)CC4)n3)n(C)c2)n1", "note": "[Compound B-54]", "EC50": "100 to 500"}, {"compound": "CN1CCC(NC(=O)CCNC(=O)c2nc(NC(=O)c3cc(NC(=O)CCNC(=O)c4nc(NC(=O)CCCNC(=O)c5cc(NC(=O)c6nc(NC(=O)CCNC(=O)c7cc(NC(=O)c8nccn8C)cn7C)cn6C)cn5C)cn4C)cn3C)cn2C)CC1", "note": "[Compound B-55]", "EC50": "100 to 500"}, {"compound": "CCCNC(=O)CCNC(=O)c1nc(NC(=O)c2cc(NC(=O)CCNC(=O)c3nc(NC(=O)CCCNC(=O)c4cc(NC(=O)c5nc(NC(=O)CCNC(=O)c6cc(NC(=O)c7nccn7C)cn6C)cn5C)cn4C)cn3C)cn2CCCCCCN=[N+]=[N-])cn1C", "note": "[Compound B-56]", "EC50": "100 to 500"}, {"compound": "CCCNC(=O)CCNC(=O)c1nc(NC(=O)c2cc(NC(=O)CCNC(=O)c3nc(NC(=O)CCCNC(=O)c4cc(NC(=O)c5nc(NC(=O)CCNC(=O)c6cc(NC(=O)c7nccn7C)cn6CCCCCCN=[N+]=[N-])cn5C)cn4C)cn3C)cn2C)cn1C", "note": "[Compound B-60]", "EC50": "100 to 500"}, {"compound": "CCCNC(=O)CCNC(=O)c1nc(NC(=O)c2cc(NC(=O)CCNC(=O)c3nc(NC(=O)CCCNC(=O)c4cc(NC(=O)c5nc(NC(=O)CCNC(=O)c6cc(NC(=O)c7nccn7C)cn6CCCCCCN)cn5C)cn4C)cn3C)cn2C)cn1C", "note": "[Compound B-61]", "EC50": "> 1000"}, {"compound": "CCCNC(=O)CCNC(=O)c1nc(NC(=O)c2cc(NC(=O)CCNC(=O)c3nc(NC(=O)CCCNC(=O)c4cc(NC(=O)c5nc(NC(=O)CCNC(=O)c6cc(NC(=O)c7nccn7C)c[nH]6)cn5C)c[nH]4)cn3C)c[nH]2)cn1C", "note": "[Compound B-62]", "EC50": "> 1000"}, {"compound": "CCCNC(=O)c1cc(NC(=O)c2cc(NC(=O)c3nc(NC(=O)c4nc(NC(=O)[C@@H](N)CCNC(=O)c5nc(NC(=O)CCNC(=O)c6cc(NC(=O)c7nccn7C)cn6C)cn5C)cn4C)cn3C)cn2C)cn1C", "note": "[Compound B-64]", "EC50": "> 1000"}, {"compound": "CCOC(=O)CCNC(=O)c1nc(NC(=O)c2cc(NC(=O)CCNC(=O)c3nc(NC(=O)CCCNC(=O)c4cc(NC(=O)c5nc(NC(=O)CCNC(=O)c6cc(NC(=O)c7nccn7C)cn6C)cn5C)cn4C)cn3C)cn2C)cn1C", "note": "[Compound B-65]", "EC50": "100 to 500"}, {"compound": "CCCNC(=O)c1cc(NC(=O)c2nc(NC(=O)CCCNC(=O)c3cc(NC(=O)c4nc(NC(=O)CCNC(=O)c5cc(NC(=O)c6nccn6C)cn5C)cn4C)cn3C)cn2C)cn1C", "note": "[Compound B-67]", "EC50": "> 1000"}, {"compound": "Cn1cc(NC(=O)c2nc(NC(=O)CCNC(=O)c3cc(NC(=O)c4nccn4C)cn3C)cn2C)cc1C(=O)NCCCC(=O)Nc1cn(C)c(C(=O)NCCC(=O)Nc2cc(C(=O)Nc3cn(C)c(C(=O)NCCC(=O)N4CC(c5cnc(CN(CCCCO)CCCCO)[nH]5)C4)n3)n(C)c2)n1", "note": "[Compound B-70]", "EC50": "100 to 500"}, {"compound": "COCCOCCOCCOCCOCCOCCOCCOCCN(CCOCCOCCOCCOCCOCCOCCOCCOC)C(=O)CCNC(=O)c1nc(NC(=O)c2cc(NC(=O)CCNC(=O)c3nc(NC(=O)CCCNC(=O)c4cc(NC(=O)c5nc(NC(=O)CCNC(=O)c6cc(NC(C)c7nccn7C)cn6C)cn5C)cn4C)cn3C)cn2C)cn1C", "note": "(centres unmarked) [Compound B-80]", "EC50": "> 1000"}, {"compound": "CCCNC(=O)CCNC(=O)c1nc(NC(=O)c2cc(NC(=O)CCNC(=O)c3nc(NC(=O)CCCNC(=O)c4cc(NC(=O)c5nc(NC(=O)c6cc(NC(=O)CCNC(=O)c7nccn7C)cn6C)cn5C)cn4C)cn3C)cn2C)cn1C", "note": "[Compound B-83]", "EC50": "> 1000"}, {"compound": "Cn1cc(NC(=O)c2nc(NC(=O)c3cc(NC(=O)CCNC(=O)c4nccn4C)cn3C)cn2C)cc1C(=O)NCCCC(=O)Nc1cn(C)c(C(=O)NCCC(=O)Nc2cc(C(=O)Nc3cn(C)c(C(=O)NCCC(=O)NCCCCN=[N+]=[N-])n3)n(C)c2)n1", "note": "[Compound B-84]", "EC50": "> 1000"}, {"compound": "CCN(CC)CCCC[C@H](NC(C)=O)C(=O)NCCOCCOCCOCCNC(=O)CCNC(=O)c1nc(NC(=O)c2cc(NC(=O)CCNC(=O)c3nc(NC(=O)CCCNC(=O)c4cc(NC(=O)c5nc(NC(=O)CCNC(=O)c6cc(NC(=O)c7nccn7C)cn6C)cn5C)cn4C)cn3C)cn2C)cn1C", "note": "[Compound B-86]", "EC50": "> 1000"}]}]}
